Values joined by “and” are separate entries in the source; they are usually repeats but may differ in a detail not shown here. Equal entries are not always repeated. Structures can show the parent of a compound that is named as a salt. Where two headings read alike, the source gives them in different places.
What was measured:
[1] = test system: SUDHL5; assay: Induction of caspase-3/7 activity (Assay 4), SUDHL5; type: cell-based; conditions: caspase-3/7 induction, 3 hours, median
How it was run: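 Caspase-3/7 activity measured by Caspase-Glo 3/7 luminescence in DLBCL cells after 3 h compound treatment at 37 °C. Medium-only background subtracted. EC50 fitted with C0 fixed at 1 and top set to the reference compound's plateau/max induction.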

[2] = test system: SUDHL5; assay: Antiproliferation assay (Assay 7), SUDHL5; type: cell-based; conditions: CellTiter-Glo, 72 hours, median, read-out: Antiproli SUDHL5 [M] (median) IC50
How it was run: (§1)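 Cells were treated with compound for 72 hours at 37° C in a humidified incubator, and viability was then read by CellTiter-Glo luminescence. A parallel reference plate was read at time zero (day 0) in the same way for baseline determination.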

[3] = test system: SUDHL10; assay: Induction of cytotoxicity (Assay 6), SUDHL10; conditions: read-out: Cytotox SUDHL10 [M] (median) IC50, CellTiter-Glo, 5 hours, SUDHL10
[4] = test system: AMO-1; assay: Antiproliferation assay (Assay 7), AMO-1; type: cell-based; conditions: CellTiter-Glo, 72 hours, several values per example
How it was run: as §1

[5] = target: BCL-2 (Homo sapiens (Human), UniProt P10415); assay: Protein-protein interaction assay BCL-2/Bad BH3 peptide (BCL-2 assay, TR-FRET); type: binding; conditions: His-BCL-2 / Bad BH3 peptide, median
Sequence of BCL-2 (P10415 other isoform, or with tags, fused parts or gaps): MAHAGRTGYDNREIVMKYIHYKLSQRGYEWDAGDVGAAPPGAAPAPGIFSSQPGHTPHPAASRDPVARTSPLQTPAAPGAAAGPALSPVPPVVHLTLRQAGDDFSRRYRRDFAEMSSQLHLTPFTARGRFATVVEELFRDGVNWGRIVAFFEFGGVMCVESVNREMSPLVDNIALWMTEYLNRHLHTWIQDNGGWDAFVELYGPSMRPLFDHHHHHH
How it was run: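 His-BCL-2 (1-211, E. coli) at 1 nM preincubated 10 min at 22 °C with compound (11 concentrations, 0.1 nM-20 μM, duplicates), then 1 nM biotinylated Bad BH3 peptide added. After 1 h at 22 °C plus overnight at 4 °C, TR-FRET 665/620 ratio normalised to DMSO and no-BCL-2 controls, IC50 from 4-parameter fit.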

[6] = read-out: Antiproli AMO-1 [M] IC50

SMILES	EC50 [1]	IC50 [2]	IC50 [5]	IC50 [3]	IC50 [4, 6]	IC50 ([4]; listed as 09, read-out: Antiproli AMO-1 [M] IC50)
Cc1c2c(nn1C)CN(C)S(=O)(=O)CCCn1c(C(=O)O)c(CCCOc3cccc4cc(F)ccc34)c3ccc(F)c-2c31 (single isomer, unassigned; enantiomer 1) [Example 38, (−)-4-fluoro-7-{3-[(6-fluoronaphthalen-1-yl)oxy]propyl}-2,3,14-trimethyl-13,13-dioxo-10,11,12,13,14,15-hexahydro-2H-13lambda^6-pyrazolo[3′,4′:4,5][1,2,8]thiadiazacycloundecino-[6,7,8-hi]indole-8-carboxylic acid (Enantiomer 1)]	20 µM	7.8e-06 M	> 20 µM	2.1e-05 M	2.9e-05 M	
Cc1c2c(nn1C)CN(C1CC1)S(=O)(=O)CCCn1c(C(=O)O)c(CCCOc3cccc4cc(F)ccc34)c3ccc(Cl)c-2c31 (single isomer, unassigned; enantiomer 1) [Example 42, (−)-4-chloro-14-cyclopropyl-7-{3-[(6-fluoro-1-naphthyl)oxy]propyl}-2,3-dimethyl-11,12,14,15-tetrahydro-2H,10H-pyrazolo[3′,4′:4,5][1,2,8]thiadiazacycloundecino[6,7,8-hi]indole-8-carboxylic acid 13,13-dioxide N-diethylamine salt (Enantiomer 1)]	0.19 µM	2.7e-07 M	12 µM	3.5e-07 M	2.6e-07 M and 4.7e-07 M	
Cc1c2c(nn1C)C(CCN1CCOCC1)N(C)S(=O)(=O)CCCn1c(C(=O)O)c(CCCOc3cccc4ccccc34)c3cccc-2c31 (single isomer, unassigned; enantiomer 1) [Example 45, 2,3,14-trimethyl-15-[2-(morpholin-4-yl)ethyl]-7-{3-[(naphthalen-1-yl)oxy]propyl}-13,13-dioxo-10,11,12,13,14,15-hexahydro-2H-13lambda^6-pyrazolo[3′,4′:4,5][1,2,8]thiadiazacycloundecino[6,7,8-hi]indole-8-carboxylic acid N-ethylethanamine Salt (Enantiomer 1)]	27 µM	1.7e-05 M	> 20 µM	1.7e-05 M	1.5e-05 M	
Cc1c2c(nn1C)CN(C)S(=O)(=O)CCCn1c(C(=O)O)c(CCCOc3cccc4cc(F)ccc34)c3ccc(F)c-2c31 (single isomer, unassigned; enantiomer 2) [Example 39, (+)-4-fluoro-7-{3-[(6-fluoronaphthalen-1-yl)oxy]propyl}-2,3,14-trimethyl-13,13-dioxo-10,11,12,13,14,15-hexahydro-2H-13lambda^6-pyrazolo[3′,4′:4,5][1,2,8]thiadiazacycloundecino-[6,7,8-hi]indole-8-carboxylic acid (Enantiomer 2)]	0.35 µM	5.4e-07 M	> 20 µM	6.7e-07 M	1.4e-06 M	
Cc1c2c(nn1C)CN(C1CC1)S(=O)(=O)CCCn1c(C(=O)O)c(CCCOc3cccc4cc(F)ccc34)c3ccc(Cl)c-2c31 (single isomer, unassigned; enantiomer 2) [Example 43, (+)-4-chloro-14-cyclopropyl-7-{3-[(6-fluoro-1-naphthyl)oxy]propyl}-2,3-dimethyl-11,12,14,15-tetrahydro-2H,10H-pyrazolo[3′,4′:4,5][1,2,8]thiadiazacycloundecino[6,7,8-hi]indole-8-carboxylic acid 13,13-dioxide N-diethylamine salt (Enantiomer 2)]	6.1 µM	7e-06 M	> 20 µM	1.3e-05 M	1.1e-05 M	
Cc1c2c(nn1C)CNS(=O)(=O)CCCn1c(C(=O)O)c(CCCOc3cccc4cc(F)ccc34)c3ccc(Cl)c-2c31 (single isomer, unassigned; enantiomer 2) [Example 52, 4-chloro-7-{3-[(6-fluoronaphthalen-1-yl)oxy]propyl}-2,3-dimethyl-13,13-dioxo-10,11,12,13,14,15-hexahydro-2H-13lambda^6-pyrazolo[3′,4′:4,5][1,2,8]thiadiazacycloundecino[6,7,8-hi]indole-8-carboxylic acid (Enantiomer 2)]	27 µM	2e-05 M	> 20 µM	1.7e-05 M	1.1e-05 M	

Further lines, with some results ahead:

EC50 [1]	IC50 [2]	IC50 [5]	SMILES	IC50 [3]	IC50 [4, 6]	IC50 ([4]; listed as 09, read-out: Antiproli AMO-1 [M] IC50)
0.12 µM	5.8e-08 M	12 µM	CCc1c2c(nn1C)CN(CC)S(=O)(=O)CCCn1c(C(=O)O)c(CCCOc3cccc4cc(F)ccc34)c3ccc(Cl)c-2c31 (single isomer, unassigned; enantiomer 1) [Example 57, (+)-4-chloro-3,14-diethyl-7-{3-[(6-fluoronaphthalen-1-yl)oxy]propyl}-2-methyl-13,13-dioxo-10,11,12,13,14,15-hexahydro-2H-13lambda^6-pyrazolo[3′,4′:4,5][1,2,8]thiadiazacycloundecino[6,7,8-hi]indole-8-carboxylic acid N-ethylethanamine Salt (Enantiomer 1)]	1.4e-07 M	1.6e-07 M and 1.3e-07 M	
0.022 µM	3.9e-08 M	16 µM	CCc1c2c(nn1C)C(CCC1CCOCC1)N(C)S(=O)(=O)CCCn1c(C(=O)O)c(CCCOc3cccc4cc(F)ccc34)c3ccc(Cl)c-2c31 (single isomer, unassigned; enantiomer 1) [Example 61, (+)-4-chloro-3-ethyl-7-{3-[(6-fluoronaphthalen-1-yl)oxy]propyl}-2,14-dimethyl-15-[2-(oxan-4-yl)ethyl]-13,13-dioxo-10,11,12,13,14,15-hexahydro-2H-13lambda^6-pyrazolo[3′,4′:4,5][1,2,8]thiadiazacycloundecino[6,7,8-hi]indole-8-carboxylic acid (Enantiomer 1)]	4.9e-08 M	2.5e-08 M and 2.8e-08 M	
3.5 µM	4e-06 M	> 20 µM	Cc1c2c(nn1C)C(CCN1CCOCC1)N(C)S(=O)(=O)CCCn1c(C(=O)O)c(CCCOc3cccc4cc(F)ccc34)c3ccc(Cl)c-2c31 (single isomer, unassigned; enantiomer 1) [Example 66, 4-chloro-7-{3-[(6-fluoronaphthalen-1-yl)oxy]propyl}-2,3,14-trimethyl-15-[2-(morpholin-4-yl)ethyl]-13,13-dioxo-10,11,12,13,14,15-hexahydro-2H-13lambda^6-pyrazolo[3′,4′:4,5][1,2,8]thiadiazacycloundecino[6,7,8-hi]indole-8-carboxylic acid (Enantiomer 1)]	8.5e-06 M	3.7e-06 M	
21 µM	1.4e-05 M	> 20 µM	CCc1c2c(nn1C)CN(C)S(=O)(=O)CCCn1c(C(=O)O)c(CCCOc3cccc4cc(F)ccc34)c3ccc(F)c-2c31 (single isomer, unassigned; enantiomer 2) [Example 9, (−)-3-Ethyl-4-fluoro-7-{3-[(6-fluoronaphthalen-1-yl)oxy]propyl}-2,14-dimethyl-13,13-dioxo-10,11,12,13,14,15-hexahydro-2H-13λ^6-pyrazolo[3′,4′:4,5][1,2,8]thiadiazacycloundecino-[6,7,8-hi]indole-8-carboxylic acid (Enantiomer 2)]	> 3.3e-05 M		> 3.3e-05 M
5 µM	2.2e-06 M	20 µM	CCc1c2c(nn1C)CN(C)S(=O)(=O)CCCn1c(C(=O)O)c(CCCOc3cccc4cc(F)ccc34)c3ccc(Cl)c-2c31 (single isomer, unassigned; enantiomer 2) [Example 37, (−)-4-chloro-3-ethyl-7-{3-[(6-fluoronaphthalen-1-yl)oxy]propyl}-2,14-dimethyl-13,13-dioxo-10,11,12,13,14,15-hexahydro-2H-13lambda^6-pyrazolo[3′,4′:4,5][1,2,8]thiadiazacycloundecino-[6,7,8-hi]indole-8-carboxylic acid (Enantiomer 2)]	9e-06 M	2.8e-05 M	
4.1 µM	3.7e-06 M	14 µM	CCc1c2c(nn1C)C(CCC1CCOCC1)N(C)S(=O)(=O)CCCn1c(C(=O)O)c(CCCOc3cccc4cc(F)ccc34)c3ccc(Cl)c-2c31 (single isomer, unassigned; enantiomer 2) [Example 62, (−)-4-chloro-3-ethyl-7-{3-[(6-fluoronaphthalen-1-yl)oxy]propyl}-2,14-dimethyl-15-[2-(oxan-4-yl)ethyl]-13,13-dioxo-10,11,12,13,14,15-hexahydro-2H-13lambda^6-pyrazolo[3′,4′:4,5][1,2,8]thiadiazacycloundecino[6,7,8-hi]indole-8-carboxylic acid (Enantiomer 2)]	9.7e-06 M	3.8e-06 M	
0.04 µM	7e-08 M	19 µM	CCc1c2c(nn1C)C(CCC1CCOCC1)N(C)S(=O)(=O)CCCn1c(C(=O)O)c(CCCOc3cccc4cc(F)ccc34)c3ccc(Cl)c-2c31 (single isomer, unassigned; enantiomer 3) [Example 63, (+)-4-chloro-3-ethyl-7-{3-[(6-fluoronaphthalen-1-yl)oxy]propyl}-2,14-dimethyl-15-[2-(oxan-4-yl)ethyl]-13,13-dioxo-10,11,12,13,14,15-hexahydro-2H-13lambda^6-pyrazolo[3′,4′:4,5][1,2,8]thiadiazacycloundecino[6,7,8-hi]indole-8-carboxylic acid (Enantiomer 3)]	8.6e-08 M	4e-08 M and 4.5e-08 M and 3.3e-08 M	
